We go through four molecules from ChEMBL document CHEMBL1201862, “PubChem BioAssay data set” (2004).

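In this assay, cells in 96-well plates receive the compound at five concentrations for 48 hours. Endpoints are linearly interpolated between the surrounding concentrations. GI50: concentration for 50% inhibition of growth.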 The source made the active and inactive calls. Cut-off read from the data, not from the text of the source: active = GI50 up to about 1.1 µM and inactive = higher.

Among the test systems are HCT-15; SK-OV-3; BT-549; DU-145; OVCAR-3; NCI-H23; SF-268; KM12; ACHN; MDA-MB-435; K562; OVCAR-4; A498; IGROV-1; MCF7; MDA-MB-231; HT-29; OVCAR-8; HL-60; Hs-578T.
Holding throughout (experiment): growth of human tumour cells (NCI), 48 h

As for `CN(C)CCNC(=O)Cn1ccc(=O)c2c([N+](=O)[O-])cccc21`, the GI50 with HCT-15 was over 100 µM; with SK-OV-3, > 100 µM (inactive); in the experiment on BT-549 it was > 100 µM (inactive); in the experiment with DU-145 it was > 100 µM (inactive); with OVCAR-3, > 100 µM (inactive); in the experiment with NCI-H23, > 100 µM (inactive). Moreover, the GI50 in the experiment on SF-268, in the experiment with KM12, with ACHN, in the experiment on MDA-MB-435, in the experiment on K562 and with OVCAR-4 was > 100 µM (inactive) each time. Besides, the GI50 in the experiment with A498, in the experiment with IGROV-1, in the experiment on MCF7, in the experiment on MDA-MB-231, in the experiment on HT-29 and in the experiment with OVCAR-8 was > 100 µM (inactive) in each case. For the same molecule, the GI50 in the experiment with HL-60 and in the experiment on Hs-578T was > 100 µM (inactive) in each case.

Consider `O=[N+]([O-])c1c(Br)cc(Br)c2c1Nc1c(ccc(Cl)c1Cl)S2`, for which the GI50 with HCT-15 is 16.9 µM; in the experiment on SK-OV-3 it was 19.6 µM (inactive); with BT-549, 2.88 µM (inactive); in the experiment on DU-145 it was 14.1 µM (inactive); with OVCAR-3 it was 4.8 µM (inactive); in the experiment with NCI-H23, 14.4 µM (inactive). In addition, the GI50 is 16.3 µM (inactive) with SF-268; 5.89 µM (inactive) with KM12; 16.8 µM (inactive) in the experiment on ACHN; 15.5 µM (inactive) in the experiment with MDA-MB-435; 3.45 µM (inactive) in the experiment on K562; 13.9 µM (inactive) in the experiment with OVCAR-4. Further, the GI50 was 21.1 µM (inactive) in the experiment on A498; 14.9 µM (inactive) with IGROV-1; 2.87 µM (inactive) in the experiment with MCF7; 13.2 µM (inactive) in the experiment on MDA-MB-231; 11.7 µM (inactive) with HT-29; 2.79 µM (inactive) in the experiment with OVCAR-8. Further, the GI50 in the experiment on HL-60 was 2.85 µM (inactive); in the experiment on Hs-578T it was 25.1 µM (inactive).

With `COc1ccc2c3c(ccc2c1)NC(C(=O)O)CC3` (stereo not given), the GI50 with HCT-15 is 51.8 µM; with SK-OV-3 it was > 100 µM (inactive); in the experiment on BT-549, > 100 µM (inactive); in the experiment on DU-145, > 100 µM (inactive); in the experiment on OVCAR-3, 35.6 µM (inactive); with NCI-H23, > 100 µM (inactive). For the same molecule, the GI50 in the experiment with SF-268 was 39.1 µM (inactive); in the experiment on KM12, 67.3 µM (inactive); in the experiment on ACHN it was 73.8 µM (inactive); in the experiment on MDA-MB-435 it was 60.4 µM (inactive); in the experiment with K562 it was 35.2 µM (inactive); in the experiment with OVCAR-4, 65.3 µM (inactive). Besides, the GI50 is 27.7 µM (inactive) with A498; 40.8 µM (inactive) with IGROV-1; 36.4 µM (inactive) with MCF7; 85.7 µM (inactive) in the experiment on MDA-MB-231; 45.2 µM (inactive) in the experiment with HT-29; 64.4 µM (inactive) in the experiment on OVCAR-8. Further, the GI50 in the experiment with HL-60 was 26.1 µM (inactive); in the experiment on Hs-578T, 50.4 µM (inactive).

With `C/C(=N\Nc1nc2cc(C)ccc2s1)c1ccccn1`, the GI50 is 0.272 µM in the experiment on HCT-15; 0.49 µM (active) in the experiment on SK-OV-3; 6.22 µM (inactive) in the experiment with BT-549; 0.652 µM (active) in the experiment on DU-145; 0.441 µM (active) in the experiment on OVCAR-3; 0.39 µM (active) in the experiment with NCI-H23. Moreover, the GI50 was 0.505 µM (active) with SF-268; 0.794 µM (active) in the experiment on KM12; 0.25 µM (active) with ACHN; 0.982 µM (active) with MDA-MB-435; 0.0948 µM (active) in the experiment on K562; 0.324 µM (active) with OVCAR-4. Further, the GI50 was 1.09 µM (active) in the experiment with A498; 0.199 µM (active) in the experiment on IGROV-1; 0.119 µM (active) in the experiment with MCF7; 0.233 µM (active) in the experiment on MDA-MB-231; 0.121 µM (active) with HT-29; 0.18 µM (active) in the experiment with OVCAR-8. In addition, the GI50 is 0.158 µM (active) in the experiment with HL-60 and 1.29 µM (inactive) in the experiment on Hs-578T.
